Experimental data as given in ChEMBL document CHEMBL1201862, “PubChem BioAssay data set” (2004).
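How tested: cells in 96-well plates exposed to compound for 48 hours at five concentrations. At the GI50, growth is halved.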 Activity calls are given as the source filed them. No stated cut-off is given here; in the data, active = GI50 up to about 1.1 µM and inactive = higher.

Key:
Assay in all cases: inhibition of tumour cell growth, NCI panel, 48 h
[1] = test system: MDA-MB-231
[2] = test system: CAKI-1
[3] = test system: SF-539
[4] = test system: MDA-N
[5] = test system: SR
[6] = test system: Malme-3M
[7] = test system: T47D
[8] = test system: ACHN
[9] = test system: HCT-15
[10] = test system: Hs-578T
[11] = test system: HCC 2998
[12] = test system: SN12C
[13] = test system: DU-145
[14] = test system: RXF 393
[15] = test system: CCRF-CEM
[16] = test system: SK-MEL-5
[17] = test system: NCI-H460
[18] = test system: NCI-H23
[19] = test system: HL-60
[20] = test system: KM-20L2

`NC(Cc1ccnnc1)C(=O)O` (stereo unspecified) was tested, and the GI50 [1] was > 100 µM (inactive), the GI50 [2] was > 100 µM (inactive) and the GI50 [3] was > 100 µM (inactive). For the same compound, the GI50 [4] was > 100 µM (inactive), the GI50 [5] was > 100 µM (inactive) and the GI50 [6] was > 100 µM (inactive). The GI50 [7] was > 100 µM (inactive), the GI50 [8] was > 100 µM (inactive) and the GI50 [9] was > 100 µM. The GI50 [10] was > 100 µM (inactive), the GI50 [11] was > 100 µM (inactive) and the GI50 [12] was > 100 µM (inactive). For the same compound, the GI50 [13] was > 100 µM (inactive), the GI50 [14] was > 100 µM (inactive) and the GI50 [15] was > 100 µM (inactive). The GI50 [16] was > 100 µM (inactive), the GI50 [17] was > 100 µM (inactive) and the GI50 [18] was > 100 µM (inactive). The GI50 [19] was > 100 µM (inactive).

In the case of `COC(=O)C1(Cc2ccc3c(c2)CCC3)Cc2cc3c(cc2C1=O)CCC3` (stereo unspecified), the GI50 [1] is reported as 24.6 µM (inactive), the GI50 [2] is reported as 6.73 µM (inactive) and the GI50 [3] is reported as > 46.5 µM (inactive). The GI50 [4] was 13 µM (inactive), the GI50 [5] was 11.4 µM (inactive) and the GI50 [6] was 41.5 µM (inactive). For the same compound, the GI50 [7] was 10.8 µM (inactive), the GI50 [8] was 37.2 µM (inactive) and the GI50 [9] was 26.5 µM. The GI50 [10] was 33 µM (inactive), the GI50 [11] was 22.1 µM (inactive) and the GI50 [12] was 26.9 µM (inactive). For the same compound, the GI50 [13] was 44.4 µM (inactive), the GI50 [14] was 29.4 µM (inactive) and the GI50 [15] was 17.7 µM (inactive). For the same compound, the GI50 [16] was 14.3 µM (inactive), the GI50 [17] was 15.3 µM (inactive) and the GI50 [18] was 22 µM (inactive). For the same compound, the GI50 [19] was 6.67 µM (inactive).

With `Nc1nc(Cl)c(C=O)c(NCC2(CO)CC(CCc3ccccc3)C2)n1` (stereo unspecified) the GI50 [1] was 7.46 µM (inactive), the GI50 [2] was 1.55 µM (inactive) and the GI50 [3] was 12.4 µM (inactive). The GI50 [4] was 6.59 µM (inactive), the GI50 [5] was 1.87 µM (inactive) and the GI50 [6] was 14.1 µM (inactive). The GI50 [7] was 1.34 µM (inactive), the GI50 [8] was 12.7 µM (inactive) and the GI50 [9] was 4.18 µM. For the same compound, the GI50 [10] was 22.9 µM (inactive), the GI50 [11] was 1.88 µM (inactive) and the GI50 [12] was 6.15 µM (inactive). For the same compound, the GI50 [13] was 14.8 µM (inactive), the GI50 [14] was 14.2 µM (inactive) and the GI50 [15] was 7.85 µM (inactive). For the same compound, the GI50 [16] was 8.05 µM (inactive), the GI50 [17] was 16.7 µM (inactive) and the GI50 [18] was 2.29 µM (inactive). The GI50 [19] was 1.67 µM (inactive).

In the case of `C[C@@H](C[C@H]1OC(C)(C)O[C@@H]1C(C)(C)O)[C@H]1CC=C2[C@]3(C)[C@H](O)C[C@H]4C(C)(C)[C@H](O)CC[C@]4(C)[C@H]3CC[C@]21C`, the GI50 [1] is reported as 7.93 µM (inactive), the GI50 [2] is reported as 10.8 µM (inactive) and the GI50 [3] is reported as 11.9 µM (inactive). The GI50 [4] was 8.85 µM (inactive), the GI50 [5] was 4.76 µM (inactive) and the GI50 [6] was 14 µM (inactive). For the same compound, the GI50 [7] was 7.73 µM (inactive), the GI50 [8] was 8.15 µM (inactive) and the GI50 [9] was 6.03 µM. For the same compound, the GI50 [10] was 7.33 µM (inactive), the GI50 [11] was 7.08 µM (inactive) and the GI50 [12] was 3.32 µM (inactive). For the same compound, the GI50 [13] was 14.1 µM (inactive), the GI50 [14] was 6.44 µM (inactive) and the GI50 [15] was 5.64 µM (inactive). The GI50 [16] was 7.36 µM (inactive), the GI50 [17] was 6.44 µM (inactive) and the GI50 [18] was 9.86 µM (inactive). The GI50 [19] was 2.62 µM (inactive).

In the case of `COC(=O)C(C)Oc1ccc(O)cc1` (stereo unspecified), the GI50 [2] is reported as > 100 µM (inactive), the GI50 [3] is reported as > 100 µM (inactive) and the GI50 [6] is reported as > 100 µM (inactive). For the same compound, the GI50 [8] was > 100 µM (inactive), the GI50 [9] was > 100 µM and the GI50 [20] was > 100 µM (inactive). The GI50 [11] was > 100 µM (inactive), the GI50 [12] was > 100 µM (inactive) and the GI50 [15] was > 100 µM (inactive). For the same compound, the GI50 [16] was > 100 µM (inactive), the GI50 [17] was > 100 µM (inactive) and the GI50 [18] was > 100 µM (inactive). For the same compound, the GI50 [19] was > 100 µM (inactive).

With `COc1ccc(OC)c(N2CC(N)C2=O)c1` (stereo unspecified) the GI50 [3] was > 100 µM (inactive), the GI50 [6] was > 100 µM (inactive) and the GI50 [8] was > 100 µM (inactive). For the same compound, the GI50 [9] was > 100 µM, the GI50 [20] was > 100 µM (inactive) and the GI50 [11] was > 100 µM (inactive). The GI50 [12] was > 100 µM (inactive), the GI50 [14] was > 100 µM (inactive) and the GI50 [15] was > 100 µM (inactive). For the same compound, the GI50 [16] was > 100 µM (inactive), the GI50 [17] was > 100 µM (inactive) and the GI50 [18] was > 100 µM (inactive). The GI50 [19] was > 100 µM (inactive).

With `Cc1ccc2nc(NC(=O)C(=O)C(C#N)c3ccc(Cl)cc3)sc2c1` (stereo unspecified) the GI50 [2] was > 50 µM (inactive), the GI50 [3] was > 50 µM (inactive) and the GI50 [6] was > 50 µM (inactive). For the same compound, the GI50 [8] was > 50 µM (inactive), the GI50 [9] was > 50 µM and the GI50 [20] was > 50 µM (inactive). The GI50 [11] was > 50 µM (inactive), the GI50 [12] was > 50 µM (inactive) and the GI50 [14] was > 50 µM (inactive). For the same compound, the GI50 [17] was > 50 µM (inactive) and the GI50 [18] was > 50 µM (inactive).

In the case of `CS(=O)(=O)OCC1CN(S(C)(=O)=O)c2cc(O)ccc21` (stereo unspecified), the GI50 [1] is reported as 2.3 µM (inactive), the GI50 [2] is reported as 3.42 µM (inactive) and the GI50 [3] is reported as 2.42 µM (inactive). For the same compound, the GI50 [4] was 1.91 µM (inactive), the GI50 [5] was 2.05 µM (inactive) and the GI50 [6] was 2.02 µM (inactive). For the same compound, the GI50 [7] was 0.498 µM (active), the GI50 [8] was 3.18 µM (inactive) and the GI50 [9] was 3.1 µM. The GI50 [10] was 3.52 µM (inactive), the GI50 [11] was 1.89 µM (inactive) and the GI50 [12] was 2.92 µM (inactive). The GI50 [13] was 2.8 µM (inactive), the GI50 [14] was 1.19 µM (inactive) and the GI50 [15] was 1.01 µM (active). The GI50 [16] was 1.69 µM (inactive), the GI50 [17] was 2.96 µM (inactive) and the GI50 [18] was 1.72 µM (inactive). For the same compound, the GI50 [19] was 1.87 µM (inactive).

With `O=c1[nH]nc(-c2ccccc2)n1O` the GI50 [1] was > 100 µM (inactive), the GI50 [2] was > 100 µM (inactive) and the GI50 [3] was > 100 µM (inactive). For the same compound, the GI50 [4] was > 100 µM (inactive), the GI50 [5] was > 100 µM (inactive) and the GI50 [6] was > 100 µM (inactive). For the same compound, the GI50 [7] was > 100 µM (inactive), the GI50 [8] was > 100 µM (inactive) and the GI50 [9] was > 100 µM. The GI50 [10] was > 100 µM (inactive), the GI50 [11] was > 100 µM (inactive) and the GI50 [12] was > 100 µM (inactive). The GI50 [13] was > 100 µM (inactive), the GI50 [14] was > 100 µM (inactive) and the GI50 [15] was > 100 µM (inactive). For the same compound, the GI50 [16] was > 100 µM (inactive), the GI50 [17] was > 100 µM (inactive) and the GI50 [18] was > 100 µM (inactive). For the same compound, the GI50 [19] was > 100 µM (inactive).
